Assay results reported in ChEMBL document CHEMBL1201862, “PubChem BioAssay data set” (2004).
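96-well plates; 48 h exposure; 5 concentrations. Endpoints by linear interpolation between flanking doses. Not reached: highest tested concentration assigned. GI50 is the concentration that inhibits growth by half.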 Active and inactive are the calls of the source. No stated cut-off is given here; in the data, active = GI50 up to about 1.1 µM and inactive = higher.

Legend:
Assay in all cases: NCI anticancer screen, dose series, 48 h
DMS-273 = system: DMS-273
HOP-92 = system: HOP-92
CCRF-CEM = system: CCRF-CEM
SK-OV-3 = system: SK-OV-3
NCI-H226 = system: NCI-H226
CAKI-1 = system: CAKI-1
NCI-H23 = system: NCI-H23
786-0 = system: 786-0
SK-MEL-28 = system: SK-MEL-28
KM-20L2 = system: KM-20L2
A498 = system: A498
LXFL 529 = system: LXFL 529
LOX IMVI = system: LOX IMVI
EKVX = system: EKVX
HOP-62 = system: HOP-62
TK-10 = system: TK-10
DMS-114 = system: DMS-114
SF-295 = system: SF-295
SF-268 = system: SF-268
RPMI-8226 = system: RPMI-8226
OVCAR-3 = system: OVCAR-3
SNB-19 = system: SNB-19
HOP-18 = system: HOP-18
U-251 = system: U-251
RXF 393 = system: RXF 393
SK-MEL-5 = system: SK-MEL-5
M14 = system: M14
SNB-75 = system: SNB-75
ACHN = system: ACHN
DLD-1 = system: DLD-1
Malme-3M = system: Malme-3M
HCT-116 = system: HCT-116
MOLT-4 = system: MOLT-4
SNB-78 = system: SNB-78
HT-29 = system: HT-29
OVCAR-4 = system: OVCAR-4
OVCAR-8 = system: OVCAR-8
HL-60 = system: HL-60
SF-539 = system: SF-539
SK-MEL-2 = system: SK-MEL-2
SW-620 = system: SW-620
OVCAR-5 = system: OVCAR-5
XF498 = system: XF498
KM12 = system: KM12
HCC 2998 = system: HCC 2998
K562 = system: K562
NCI-H522 = system: NCI-H522
COLO 205 = system: COLO 205
UO-31 = system: UO-31
A549 = system: A549
NCI-H460 = system: NCI-H460
HCT-15 = system: HCT-15
M19-MEL = system: M19-MEL
SN12C = system: SN12C
UACC-62 = system: UACC-62
IGROV-1 = system: IGROV-1
UACC-257 = system: UACC-257

COc1ccc2c(c1)OC[C@@H]1c3cc4c(cc3O[C@H]21)OCO4
GI50 (DMS-273): > 100 µM (inactive)
GI50 (HOP-92): 70 µM (inactive)
GI50 (CCRF-CEM): > 100 µM (inactive)
GI50 (SK-OV-3): > 100 µM (inactive)
GI50 (NCI-H226): > 100 µM (inactive)
GI50 (CAKI-1): 58.5 µM (inactive)
GI50 (NCI-H23): > 100 µM (inactive)
GI50 (786-0): > 100 µM (inactive)
GI50 (SK-MEL-28): > 100 µM (inactive)
GI50 (KM-20L2): > 100 µM (inactive)
GI50 (A498): > 100 µM (inactive)
GI50 (LXFL 529): > 100 µM (inactive)
GI50 (LOX IMVI): > 100 µM (inactive)
GI50 (EKVX): > 100 µM (inactive)
GI50 (HOP-62): > 100 µM (inactive)
GI50 (TK-10): > 100 µM (inactive)
GI50 (DMS-114): > 100 µM (inactive)
GI50 (SF-295): > 100 µM (inactive)
GI50 (SF-268): 75 µM (inactive)
GI50 (RPMI-8226): > 100 µM (inactive)
GI50 (OVCAR-3): > 100 µM (inactive)
GI50 (SNB-19): 30.4 µM (inactive)
GI50 (HOP-18): 37.2 µM (inactive)
GI50 (U-251): > 100 µM (inactive)
GI50 (RXF 393): > 100 µM (inactive)
GI50 (SK-MEL-5): > 100 µM (inactive)
GI50 (M14): > 100 µM (inactive)
GI50 (SNB-75): 11.6 µM (inactive)
GI50 (ACHN): > 100 µM (inactive)
GI50 (DLD-1): > 100 µM (inactive)
GI50 (Malme-3M): > 100 µM (inactive)
GI50 (HCT-116): > 100 µM (inactive)
GI50 (MOLT-4): > 100 µM (inactive)
GI50 (SNB-78): > 100 µM (inactive)
GI50 (HT-29): > 100 µM (inactive)
GI50 (OVCAR-4): 35.7 µM (inactive)
GI50 (OVCAR-8): > 100 µM (inactive)
GI50 (HL-60): > 100 µM (inactive)
GI50 (SF-539): > 100 µM (inactive)
GI50 (SK-MEL-2): > 100 µM (inactive)
GI50 (SW-620): > 100 µM (inactive)
GI50 (OVCAR-5): > 100 µM (inactive)
GI50 (XF498): > 100 µM (inactive)
GI50 (KM12): > 100 µM (inactive)
GI50 (HCC 2998): > 100 µM (inactive)
GI50 (K562): > 100 µM (inactive)
GI50 (NCI-H522): > 100 µM (inactive)
GI50 (COLO 205): > 100 µM (inactive)
GI50 (UO-31): > 100 µM (inactive)
GI50 (A549): > 100 µM (inactive)
GI50 (NCI-H460): > 100 µM (inactive)
GI50 (HCT-15): > 100 µM

O=C1[C@H]2ON(c3ccccc3)C(c3ccco3)[C@H]2C(=O)N1c1ccc(Cc2ccc(N3C(=O)[C@@H]4ON(c5ccccc5)C(c5ccco5)[C@@H]4C3=O)cc2)cc1 (stereo partly specified)
GI50 (DMS-273): 78.3 µM (inactive)
GI50 (HOP-92): > 100 µM (inactive)
GI50 (M19-MEL): > 100 µM (inactive)
GI50 (CCRF-CEM): > 100 µM (inactive)
GI50 (SK-OV-3): > 100 µM (inactive)
GI50 (NCI-H226): > 100 µM (inactive)
GI50 (CAKI-1): > 100 µM (inactive)
GI50 (NCI-H23): > 100 µM (inactive)
GI50 (786-0): > 100 µM (inactive)
GI50 (SN12C): > 100 µM (inactive)
GI50 (SK-MEL-28): > 100 µM (inactive)
GI50 (KM-20L2): > 100 µM (inactive)
GI50 (UACC-62): 85.3 µM (inactive)
GI50 (IGROV-1): > 100 µM (inactive)
GI50 (A498): > 100 µM (inactive)
GI50 (UACC-257): 47.5 µM (inactive)
GI50 (LXFL 529): > 100 µM (inactive)
GI50 (LOX IMVI): > 100 µM (inactive)
GI50 (HOP-62): > 100 µM (inactive)
GI50 (DMS-114): > 100 µM (inactive)
GI50 (SF-295): > 100 µM (inactive)
GI50 (SF-268): > 100 µM (inactive)
GI50 (RPMI-8226): > 100 µM (inactive)
GI50 (OVCAR-3): > 100 µM (inactive)
GI50 (HOP-18): > 100 µM (inactive)
GI50 (U-251): > 100 µM (inactive)
GI50 (RXF 393): > 100 µM (inactive)
GI50 (SK-MEL-5): > 100 µM (inactive)
GI50 (M14): 82.2 µM (inactive)
GI50 (SNB-75): > 100 µM (inactive)
GI50 (ACHN): > 100 µM (inactive)
GI50 (DLD-1): > 100 µM (inactive)
GI50 (Malme-3M): > 100 µM (inactive)
GI50 (MOLT-4): > 100 µM (inactive)
GI50 (SNB-78): > 100 µM (inactive)
GI50 (HT-29): > 100 µM (inactive)
GI50 (OVCAR-4): > 100 µM (inactive)
GI50 (HL-60): > 100 µM (inactive)
GI50 (SF-539): > 100 µM (inactive)
GI50 (SK-MEL-2): > 100 µM (inactive)
GI50 (SW-620): > 100 µM (inactive)
GI50 (OVCAR-5): > 100 µM (inactive)
GI50 (XF498): 42.7 µM (inactive)
GI50 (KM12): > 100 µM (inactive)
GI50 (HCC 2998): > 100 µM (inactive)
GI50 (K562): > 100 µM (inactive)
GI50 (COLO 205): 78.2 µM (inactive)
GI50 (UO-31): > 100 µM (inactive)
GI50 (A549): > 100 µM (inactive)
GI50 (NCI-H460): > 100 µM (inactive)
GI50 (HCT-15): > 100 µM

Cc1cc(N(CCC#N)CCC#N)ccc1/N=N/c1ccc(C(=O)O)cc1
GI50 (DMS-273): > 100 µM (inactive)
GI50 (M19-MEL): > 100 µM (inactive)
GI50 (SK-OV-3): > 100 µM (inactive)
GI50 (NCI-H226): > 100 µM (inactive)
GI50 (CAKI-1): > 100 µM (inactive)
GI50 (NCI-H23): > 100 µM (inactive)
GI50 (786-0): > 100 µM (inactive)
GI50 (SN12C): > 100 µM (inactive)
GI50 (SK-MEL-28): > 100 µM (inactive)
GI50 (UACC-62): > 100 µM (inactive)
GI50 (IGROV-1): > 100 µM (inactive)
GI50 (A498): > 100 µM (inactive)
GI50 (UACC-257): > 100 µM (inactive)
GI50 (LXFL 529): > 100 µM (inactive)
GI50 (LOX IMVI): > 100 µM (inactive)
GI50 (EKVX): > 100 µM (inactive)
GI50 (HOP-62): 61 µM (inactive)
GI50 (TK-10): > 100 µM (inactive)
GI50 (DMS-114): > 100 µM (inactive)
GI50 (SF-295): > 100 µM (inactive)
GI50 (SF-268): > 100 µM (inactive)
GI50 (RPMI-8226): 99.3 µM (inactive)
GI50 (OVCAR-3): > 100 µM (inactive)
GI50 (HOP-18): 58.9 µM (inactive)
GI50 (U-251): > 100 µM (inactive)
GI50 (RXF 393): > 100 µM (inactive)
GI50 (SK-MEL-5): > 100 µM (inactive)
GI50 (M14): > 100 µM (inactive)
GI50 (SNB-75): 36.7 µM (inactive)
GI50 (ACHN): > 100 µM (inactive)
GI50 (Malme-3M): > 100 µM (inactive)
GI50 (MOLT-4): > 100 µM (inactive)
GI50 (SNB-78): > 100 µM (inactive)
GI50 (HT-29): > 100 µM (inactive)
GI50 (OVCAR-4): > 100 µM (inactive)
GI50 (OVCAR-8): > 100 µM (inactive)
GI50 (SF-539): > 100 µM (inactive)
GI50 (SK-MEL-2): > 100 µM (inactive)
GI50 (SW-620): > 100 µM (inactive)
GI50 (OVCAR-5): > 100 µM (inactive)
GI50 (XF498): > 100 µM (inactive)
GI50 (KM12): > 100 µM (inactive)
GI50 (HCC 2998): > 100 µM (inactive)
GI50 (NCI-H522): > 100 µM (inactive)
GI50 (COLO 205): > 100 µM (inactive)
GI50 (UO-31): 77.6 µM (inactive)
GI50 (A549): > 100 µM (inactive)
GI50 (HCT-15): > 100 µM
